Data taken from BindingDB's records for doi:10.1016/j.bmc.2006.12.019 (Berlex, 2007).
pKi: −log10 of the molar value.

Experiments:
Test in all cases: Enzyme Inhibition Assay
Prothrombin = Prothrombin (Homo sapiens, UniProt P00734)
Protocol: (§1) The enzyme activities were determined kinetically as the initial rate of cleavage of a peptide p-nitroanilide. Km for enzyme and substrate was determined using four substrate dilutions. Enzyme was incubated with test compounds for 10 min; the reaction was then started by the addition of the substrate. […] IC50 values for inhibitors were determined from the dose response curve by fitting the data to the Hill equation. Ki,app values were calculated as the IC50/2, with the IC50 value determined at a substrate concentration equal to Km

Serine protease 1 = biological target: T1, Serine protease 1 (Bos taurus, UniProt P00760)
T1 sequence (P00760 whole entry): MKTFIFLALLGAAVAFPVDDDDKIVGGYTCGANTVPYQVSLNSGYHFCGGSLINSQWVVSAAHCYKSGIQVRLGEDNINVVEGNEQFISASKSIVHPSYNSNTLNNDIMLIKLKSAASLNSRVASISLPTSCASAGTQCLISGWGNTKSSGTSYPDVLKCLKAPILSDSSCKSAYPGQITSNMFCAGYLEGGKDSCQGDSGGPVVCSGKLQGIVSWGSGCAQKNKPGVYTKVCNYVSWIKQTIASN
Protocol: as §1

Coagulation factor X = Coagulation factor X (Homo sapiens, UniProt P00742)
Protocol: as §1

Chain of Coagulation factor X (P00742 41-179 limits assumed): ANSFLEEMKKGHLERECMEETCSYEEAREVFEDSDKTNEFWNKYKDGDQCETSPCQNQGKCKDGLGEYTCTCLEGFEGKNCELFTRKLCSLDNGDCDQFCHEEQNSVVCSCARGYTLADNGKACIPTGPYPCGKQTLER
Chain of Coagulation factor X (P00742 235-488 limits assumed): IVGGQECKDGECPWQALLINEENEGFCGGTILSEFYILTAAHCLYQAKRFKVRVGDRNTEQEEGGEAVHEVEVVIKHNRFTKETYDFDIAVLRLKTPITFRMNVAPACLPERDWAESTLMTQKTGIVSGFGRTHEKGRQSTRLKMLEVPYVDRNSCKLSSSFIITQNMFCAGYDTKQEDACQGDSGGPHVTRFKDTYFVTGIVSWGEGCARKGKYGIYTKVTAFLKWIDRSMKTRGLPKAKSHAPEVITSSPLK

| Structure (SMILES) | pKi (Prothrombin) | pKi (Serine protease 1) | pKi (Coagulation factor X) |
| --- | --- | --- | --- |
| Cc1ccc(NC(=O)c2sc3ccccc3c2Cl)c(C(=O)Nc2ccc(Cl)cc2)c1 [3-chloro-N-{2-[(4-chlorophenyl)carbamoyl]-4-methylphenyl}-1-benzothiophene-2-carboxamide] | < 5.30 | < 5.30 |  |
| CCCN1Cc2sc(C(=O)Nc3ccc(Cl)cc3C(=O)Nc3ccc(Cl)cc3)c(Cl)c2C1 [3-chloro-N-{4-chloro-2-[(4-chlorophenyl)carbamoyl]phenyl}-5-propyl-4H,5H,6H-thieno[2,3-c]pyrrole-2-carboxamide] | 5.49 |  | 8.66 |
| CN(C)Cc1ccc2c(Cl)c(C(=O)Nc3ccc(Cl)cc3C(=O)Nc3ccc(Cl)cc3)sc2c1 [3-chloro-N-{4-chloro-2-[(4-chlorophenyl)carbamoyl]phenyl}-6-[(dimethylamino)methyl]-1-benzothiophene-2-carboxamide] |  | < 5.30 |  |
| CN1CCN(Cc2c(C(=O)Nc3ccc(Cl)cc3C(=O)Nc3ccc(Cl)cc3)sc3ccccc23)CC1 [N-{4-chloro-2-[(4-chlorophenyl)carbamoyl]phenyl}-3-[(4-methylpiperazin-1-yl)methyl]-1-benzothiophene-2-carboxamide] |  | < 5.30 |  |
| CN(C)Cc1c(C(=O)Nc2ccc(Cl)cc2C(=O)Nc2ccc(Cl)cc2)sc2ccccc12 [N-{4-chloro-2-[(4-chlorophenyl)carbamoyl]phenyl}-3-[(dimethylamino)methyl]-1-benzothiophene-2-carboxamide] |  | < 5.30 |  |
| CCOC(=O)CN(C)Cc1csc(C(=O)Nc2ccc(Cl)cc2C(=O)Nc2ccc(Cl)cc2)c1Cl [ethyl 2-({[4-chloro-5-({4-chloro-2-[(4-chlorophenyl)carbamoyl]phenyl}carbamoyl)thiophen-3-yl]methyl}(methyl)amino)acetate] |  | < 5.30 |  |
| CN1CCN(Cc2csc(C(=O)Nc3ccc(Cl)cc3C(=O)Nc3ccc(Cl)cc3)c2Cl)CC1 [thiophene-containing non-amidine inhibitor, 31] |  | < 5.30 |  |
